Experimental data reported in the supplement of paper PMC10307832.

What was measured:
Assay in all cases: relative viability (nuclei count vs DMSO), 5 days (fraction); higher = more cells survive
Crenolanib + Tozasertib = compound: CC1(COc2ccc3c(c2)ncn3-c2ccc3cccc(N4CCC(N)CC4)c3n2)COC1 [Crenolanib] + Cc1cc(Nc2cc(N3CCN(C)CC3)nc(Sc3ccc(NC(=O)C4CC4)cc3)n2)n[nH]1 [Tozasertib] (partner 0.1 µM)
Outline: (§1)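 One day after seeding in 1536-well plates, lung cancer cell lines were dosed by pin tool. Dosing was either single-drug or a fixed anchor-drug dose plus five library-drug doses (not always all listed) in √10 steps. After 5 days, nuclei were stained in one fix-and-stain step and counted on 4× images, and relative viability is the nuclei count of treated wells over that of vehicle wells, given as the median of duplicate plates.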

Crenolanib + AZD7762 = compound: CC1(COc2ccc3c(c2)ncn3-c2ccc3cccc(N4CCC(N)CC4)c3n2)COC1 [Crenolanib] + NC(=O)Nc1cc(-c2cccc(F)c2)sc1C(=O)N[C@H]1CCCNC1 [AZD7762] (partner 0.2 µM)
Outline: as §1

Crenolanib + Pemetrexed = compound: CC1(COc2ccc3c(c2)ncn3-c2ccc3cccc(N4CCC(N)CC4)c3n2)COC1 [Crenolanib] + Nc1nc2[nH]cc(CCc3ccc(C(=O)N[C@@H](CCC(=O)O)C(=O)O)cc3)c2c(=O)[nH]1 [Pemetrexed] (partner 0.2 µM)
Outline: as §1

Tivantinib + Phenformin = compound: O=C1NC(=O)[C@@H](c2cn3c4c(cccc24)CCC3)[C@@H]1c1c[nH]c2ccccc12 [Tivantinib] + N=C(N)NC(=N)NCCc1ccccc1 [Phenformin] (partner 250 µM)
Outline: as §1

Row | Cell Line | relative viability (Crenolanib + Tozasertib; first compound 0.01 µM) | relative viability (Crenolanib + Tozasertib; first compound 0.03162 µM) | relative viability (Crenolanib + Tozasertib; first compound 0.3162 µM) | relative viability (Crenolanib + Tozasertib; first compound 1 µM) | relative viability (Crenolanib + AZD7762; first compound 0.01 µM) | relative viability (Crenolanib + AZD7762; first compound 0.03162 µM) | relative viability (Crenolanib + AZD7762; first compound 0.1 µM) | relative viability (Crenolanib + AZD7762; first compound 0.3162 µM) | relative viability (Crenolanib + AZD7762; first compound 1 µM) | relative viability (Crenolanib + Pemetrexed; first compound 0.01 µM) | relative viability (Crenolanib + Pemetrexed; first compound 0.03162 µM) | relative viability (Crenolanib + Pemetrexed; first compound 0.1 µM) | relative viability (Crenolanib + Pemetrexed; first compound 0.3162 µM) | relative viability (Crenolanib + Pemetrexed; first compound 1 µM) | relative viability (Tivantinib + Phenformin; first compound 0.01 µM) | relative viability (Tivantinib + Phenformin; first compound 0.03162 µM) | relative viability (Tivantinib + Phenformin; first compound 0.1 µM) | relative viability (Tivantinib + Phenformin; first compound 0.3162 µM) | relative viability (Crenolanib + Tozasertib; first compound 0.1 µM)
1 | HCC-78 | 0.366 | 0.395 | 0.406 | 0.368 | 0.629 | 0.619 | 0.733 | 0.477 | 0.567 | 0.864 | 1.01 | 0.909 | 0.956 | 0.865 | 0.682 | 0.711 | 0.689 | 0.533 | –
2 | HCC-366 | 0.167 | 0.148 | 0.144 | 0.108 | 0.689 | 0.327 | 0.333 | 0.363 | 0.474 | 0.179 | 0.161 | 0.171 | 0.181 | 0.157 | 0.63 | 0.637 | 0.598 | 0.635 | 0.154
3 | HCC-827 | 0.422 | 0.417 | 0.389 | 0.431 | 0.276 | 0.212 | 0.2 | 0.189 | 0.218 | 0.256 | 0.277 | 0.195 | 0.26 | 0.268 | 0.338 | 0.466 | 0.379 | 0.166 | 0.421
4 | HOP-62 | 0.357 | 0.332 | 0.342 | 0.341 | 0.618 | 0.709 | 0.668 | 1.1 | 0.75 | 0.322 | 0.345 | 0.373 | 0.362 | 0.417 | 0.708 | 0.524 | 0.65 | 0.821 | 0.43
5 | NCI-H520 | 0.48 | 0.475 | 0.477 | 0.437 | – | – | – | – | – | 0.701 | 0.792 | 0.628 | 0.684 | 0.702 | 0.669 | 0.393 | 0.536 | 0.547 | 0.514
6 | NCI-H661 | 0.342 | 0.36 | 0.359 | 0.412 | – | – | – | – | – | 0.959 | 0.903 | 0.925 | 0.966 | 0.979 | 0.288 | 0.281 | 0.404 | 0.271 | 0.35
7 | NCI-H727 | 0.635 | 0.579 | 0.65 | 0.501 | 0.702 | 0.445 | 0.546 | 0.671 | 0.587 | – | – | – | – | – | 0.636 | 0.409 | 0.393 | 0.584 | 0.721
8 | NCI-H1563 | – | – | – | – | – | – | – | – | – | 0.736 | 0.679 | 0.711 | 0.759 | 0.742 | 0.581 | 0.636 | 0.631 | 0.63 | –
9 | NCI-H1623 | 0.492 | 0.439 | 0.41 | 0.421 | – | – | – | – | – | – | – | – | – | – | 0.574 | 0.547 | 0.49 | – | 0.437
10 | NCI-H1648 | 0.496 | 0.51 | 0.387 | 0.408 | 0.666 | – | 0.673 | 0.673 | 0.745 | 0.742 | – | 0.821 | 0.699 | 0.716 | – | – | – | – | 0.602
11 | NCI-H1650 | 0.334 | 0.508 | 0.4 | 0.357 | – | – | – | – | – | 0.438 | 0.395 | 0.38 | 0.371 | 0.459 | 0.438 | 0.352 | 0.416 | 0.32 | 0.361
12 | NCI-H1703 | – | – | – | – | 0.143 | 0.131 | 0.114 | 0.116 | 0.113 | – | – | – | – | – | – | – | – | – | –
13 | NCI-H1792 | – | – | – | – | 0.701 | 0.686 | 0.656 | 0.834 | 0.754 | 0.738 | 0.853 | 0.8 | 0.968 | 0.803 | 0.396 | 0.567 | 0.297 | 0.492 | –
14 | NCI-H2009 | 0.748 | 0.713 | 0.722 | 0.52 | – | – | – | – | – | 1 | 1.06 | 1.07 | 0.966 | 0.847 | 0.492 | 0.503 | 0.481 | 0.528 | 0.724
15 | NCI-H2023 | 0.471 | 0.368 | 0.371 | 0.25 | – | – | – | – | – | 0.206 | 0.238 | 0.231 | 0.239 | 0.234 | 0.484 | 0.41 | 0.422 | 0.444 | 0.333
16 | NCI-H2228 | 0.291 | 0.279 | 0.223 | 0.256 | – | – | – | – | – | 0.3 | 0.33 | 0.34 | 0.337 | 0.324 | – | 0.296 | 0.283 | 0.223 | 0.236
17 | SK-LU-1 | 0.395 | 0.369 | 0.349 | 0.34 | – | – | – | – | – | 0.943 | 1.03 | 0.892 | 1.11 | 0.966 | 0.536 | 0.539 | 0.497 | 0.601 | 0.342
18 | SK-MES-1 | 0.899 | 0.832 | 0.912 | 0.746 | – | – | – | – | – | 1.06 | 0.964 | 0.886 | 0.967 | 0.929 | 0.676 | 0.672 | 0.619 | 0.673 | 0.847
19 | SW 1573 | 0.175 | 0.198 | 0.212 | 0.174 | – | – | – | – | – | 0.784 | 0.801 | 0.719 | 0.942 | 0.832 | 0.419 | 0.357 | 0.392 | 0.263 | 0.137
